Data set [1] concerns human prostate cancer cell line PC-3. The data set can be described thus: Test for tumor growth inhibition in animal model (PC-3 xenograft). The format is in vivo. Conditions: 2 mg/kg Q2D, 10 times, intraperitoneal. Here is the method:
Female S.P.F BALB/c nude mice (7-week-old) were grafted with 3×10^7 cells/□ of human prostate cancer cell line PC-3, and then intraperitoneally administered with the compound prepared in Example 55 at a daily dosage of 30 mg/kg 20 times. A positive control group was intraperitoneally administered with adriamycin at a daily dosage of 2 mg/kg 10 times once every two days.
The changes in their body weight are shown in FIG. 1, the changes in tumor size are shown in FIG. 2, and the tumor weights measured on the final day (day 21) are shown in FIG. 3.

Data set [2] has as its system PC-3 (prostate cancer). Nature of the data set: Test for inhibition of tumor cell growth (SRB), PC-3. The format is cell-based, Human. Conditions: Homo sapiens; 48 hours, SRB staining; read-out: GI50 PC-3 (prostate ancer). An outline of the steps: (§1)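 Cells seeded in RPMI 1640 with 5% FBS, exposed to compound (final […], units as printed) for 48 hours at 37° C with 5% CO2, including a time-zero plate. TCA-fixed, SRB-stained, absorbance at 540 nm as percent of control; GI50 is the 50% growth-inhibition concentration.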

Data set [3] has as its system NUGC-3 (gastric cancer). Nature of the data set: Test for inhibition of tumor cell growth (SRB), NUGC-3. Type of data set: cell-based, Human. To be noted: Homo sapiens, NUGC-3; 48 hours, SRB staining. In outline: as §1
Data set [4] deals with MBA-MB-231 (breast cancer). Nature of the data set: Test for inhibition of tumor cell growth (SRB), MBA-MB-231. Type of data set: cell-based, Human. To be noted: Homo sapiens; 48 hours, SRB staining. In outline:
as §1

Data set [5] relates to ACHN (kidney cancer). Nature of the data set: Test for inhibition of tumor cell growth (SRB), ACHN. Type of data set: cell-based, Human. Conditions: Homo sapiens, ACHN; 48 hours, SRB staining. In outline: as §1

Each structure is given as a SMILES string. A value given as a limit tells only on which side of the number the result lay.

Regarding `COc1cccc2c1C(=O)c1c(O)c3c(c(O)c1C2=O)C[C@@](O)(C(=O)CO)C[C@@H]3O[C@H]1C[C@H](N)[C@H](O)[C@H](C)O1` [adriamycin], in data set [1], the deaths result is given as “four”. For the same compound, the “effect of inhibiting tumor growth” value in data set [1] (final day (day 21), p<0.01) was 74.4%. In addition, the “reduction of tumor weight” value in data set [1] (final day (day 21), p<0.05) is on record as 69.8%.

With `CCCCCCCCCCCS(=O)(=O)N1CC[N+](CC)(CC)CC1` [Example 92, 1,1-diethyl-4-(undecane-1-sulfonyl)piperazin-1-ium iodide], the GI50 is 0.45 µg/mL in data set [2], 0.21 µg/mL in data set [3], 1.62 µg/mL in data set [4] and 0.81 µg/mL in data set [5].

Regarding `CCCCCCCC(=O)N1CC[N+](C)(CC)CC1.[I-]` [Example 6, 1-ethyl-1-methyl-4-octanoyl-piperazin-1-ium iodide], the GI50 in data set [2], in data set [3], in data set [4] and in data set [5] was above 10 µg/mL throughout.

With `CCCCCCCCCCCCCCCC(=O)N1CCC[N+](C)(CC)CC1` (stereo not shown) [Example 116, 1-ethyl-1-methyl-4-palmitoyl-1,4-diazepan-1-ium iodide], the GI50 stood at 0.36 µg/mL in data set [2], 0.25 µg/mL in data set [3], 0.59 µg/mL in data set [4] and 0.29 µg/mL in data set [5].

As to `CCCCCCCCCCCCCCCCCCS(=O)(=O)N1CC[N+](C)(Cc2ccc(F)cc2)CC1` [Example 96, 1-(4-fluorobenzyl)-1-methyl-4-(octadecane-1-sulfonyl)piperazin-1-ium bromide], the GI50 in data set [2] is 0.48 µg/mL; in data set [3], 2.73 µg/mL; in data set [4] it was 0.6 µg/mL; in data set [5], 3.25 µg/mL.

Take `CCCCCCCC(=O)N1CC[N+](C)(Cc2ccccc2)CC1.[Br-]` [Example 3, 1-benzyl-1-methyl-4-octanoyl-piperazin-1-ium bromide]: the GI50 in data set [2], in data set [3], in data set [4] and in data set [5] was above 10 µg/mL throughout.

Consider `CCCCCCCCCCCCCCCCCC(=O)N1CC[N+](CC)(Cc2ccccc2)CC1` [Example 28, 1-benzyl-1-ethyl-4-octadecanoyl-piperazin-1-ium bromide], for which the GI50 in data set [2] is 3.64 µg/mL; in data set [3] it was 5.21 µg/mL; in data set [4] it was above 10 µg/mL; in data set [5], above 10 µg/mL.

`CCCCCCCCCS(=O)(=O)N1CC[N+](CC)(Cc2ccccc2)CC1` [Example 100, 1-benzyl-1-ethyl-4-(nonane-1-sulfonyl)piperazin-1-ium bromide]: the GI50 in data set [2] is 4.08 µg/mL; in data set [3], 1.73 µg/mL; in data set [4], above 10 µg/mL; in data set [5], above 10 µg/mL.

For `CCCCCCCCCCCCCCCC(=O)N1CC[N+](C)(Cc2ccc(OC)cc2)CC1.[Cl-]` [Example 18, 4-hexadecanoyl-1-(4-methoxy-benzyl)-1-methyl-piperazin-1-ium chloride], the GI50 amounted to 0.49 µg/mL in data set [2], 1.16 µg/mL in data set [3], 0.92 µg/mL in data set [4] and 1.31 µg/mL in data set [5].

`CCCCCCCCCCCCS(=O)(=O)N1CC[N+](C)(CC)CC1` [Example 83, 4-(dodecane-1-sulfonyl)-1-ethyl-1-methyl-piperazin-1-ium iodide]: the GI50 was determined as 0.61 µg/mL in data set [2], 0.45 µg/mL in data set [3], 1.42 µg/mL in data set [4] and 0.69 µg/mL in data set [5].

Consider `CCCCCCCCCCCCCC(=O)N1CC[N+](CC)(Cc2ccccc2)CC1` [Example 15, 1-benzyl-1-ethyl-4-tetradecanoyl-piperazin-1-ium bromide], for which the GI50 was 1.42 µg/mL in data set [2], 2.07 µg/mL in data set [3], above 10 µg/mL in data set [4] and above 10 µg/mL in data set [5].

Turning to `CCCCCCCCCCCCCC(=O)N1CC[N+](CC)(Cc2cccc(F)c2)CC1` [Example 51, 1-ethyl-1-(3-fluorobenzyl)-4-tetradecanoylpiperazin-1-ium bromide], the GI50 in data set [2] is 0.52 µg/mL; in data set [3], 1.05 µg/mL; in data set [4], 1.42 µg/mL; in data set [5], 1.85 µg/mL.

Take `CCCCCCCCCCCCCCCCCCCCCC(=O)N1CC[N+](CC)(Cc2ccccc2)CC1` [Example 37, 1-benzyl-4-docosanoyl-1-ethylpiperazin-1-ium bromide]: the GI50 in data set [2], in data set [3], in data set [4] and in data set [5] was above 10 µg/mL throughout.

Take `C=CC[N+]1(C)CCN(C(=O)CCCCCCCCCCCCCCCCCCC)CC1` [Example 33, 1-allyl-4-icosanoyl-1-methylpiperazin-1-ium bromide]: the 50% growth inhibitory concentration (GI50) in data set [2] was 4.29 µg/mL; in data set [3] it was 3.45 µg/mL; in data set [4] it was above 10 µg/mL; in data set [5], above 10 µg/mL.

`CCCCCCCCCCCCS(=O)(=O)N1CC[N+](C)(Cc2ccccc2)CC1` [Example 81, 1-benzyl-4-(dodecane-1-sulfonyl)-1-methyl-piperazin-1-ium bromide]: the GI50 stood at 0.61 µg/mL in data set [2], 0.58 µg/mL in data set [3], 1.49 µg/mL in data set [4] and 1.48 µg/mL in data set [5].

Turning to `CCCCCCCCCCCCS(=O)(=O)N1CC[N+](CC)(Cc2ccccc2)CC1` [Example 84, 1-benzyl-4-(dodecane-1-sulfonyl)-1-ethyl-piperazin-1-ium bromide], the GI50 in data set [2] is 0.74 µg/mL; in data set [3] it was 0.75 µg/mL; in data set [4], 1.35 µg/mL; in data set [5], 1.12 µg/mL.

For `CCCCCCCCCCCC(=O)N1CCC[N+](C)(Cc2ccc(OC)cc2)CC1` (stereo not shown) [Example 119, 4-dodecanoyl-1-(4-methoxybenzyl)-1-methyl-1,4-diazepan-1-ium chloride], the GI50 in data set [2] amounted to 0.57 µg/mL; in data set [3], 0.36 µg/mL; in data set [4], 2.48 µg/mL; in data set [5], 1.48 µg/mL.

As to `C=CC[N+]1(C)CCN(S(=O)(=O)CCCCCCCCCCC)CC1` [Example 112, 1-allyl-1-methyl-4-(undecane-1-sulfonyl)piperazin-1-ium bromide], the GI50 in data set [2] is 0.43 µg/mL; in data set [3] it was 1.75 µg/mL; in data set [4], 1.75 µg/mL; in data set [5], 1.69 µg/mL.

In the case of `CCCCCCCC(=O)N1CC[N+](CC)(Cc2ccccc2)CC1.[Br-]` [Example 7, 1-benzyl-1-ethyl-4-octanoyl-piperazin-1-ium bromide], the GI50 in data set [2], in data set [3], in data set [4] and in data set [5] was above 10 µg/mL throughout.

On to `C=CC[N+]1(C)CCN(C(=O)CCCCCCCCC)CC1` [Example 9, 1-allyl-4-decanoyl-1-methyl-piperazin-1-ium bromide], for which the 50% growth inhibitory concentration (GI50) in data set [2] was 1.81 µg/mL; in data set [3], above 10 µg/mL; in data set [4], above 10 µg/mL; in data set [5] it was above 10 µg/mL.

For the origin of these results see patent US20100144708A1, “HETEROCYCLIC COMPOUNDS CONTAINING NITROGEN ATOMS OR PHARMACEUTICALLY ACCEPTABLE SALTS THEREOF, PROCESS FOR THE PREPARATION THEREOF AND PHARMACEUTICAL COMPOSITION COMPRISING THE SAME FOR TREATMENT OF CANCER” (Korea Research Instititute of Bioscience and Biotechnology, priority 2006, published 2010).
